Assay results as given in US10927105B1 (Lundbeck La Jolla Research Center, Inc., priority 2017, dated 2021).

target: MAGL (Homo sapiens (Human), UniProt Q99685); assay: In vitro competitive activity-based protein profiling (human prefrontal cortex membrane fractions, FP-Rh probe), MAGL band; details: read-out: MAGL IC50 (μM) (human); human prefrontal cortex membrane fractions
Sequence (Q99685 whole entry): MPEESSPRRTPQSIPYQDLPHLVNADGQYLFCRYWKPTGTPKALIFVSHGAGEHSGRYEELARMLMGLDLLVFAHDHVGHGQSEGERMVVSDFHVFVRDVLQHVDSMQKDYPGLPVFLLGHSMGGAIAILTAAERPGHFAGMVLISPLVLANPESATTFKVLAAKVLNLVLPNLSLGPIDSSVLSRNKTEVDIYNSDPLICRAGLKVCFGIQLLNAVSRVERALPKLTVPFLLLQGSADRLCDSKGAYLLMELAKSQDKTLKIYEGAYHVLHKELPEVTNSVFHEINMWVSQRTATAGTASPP

IC50 | Structure (SMILES)
< 0.1 µM | O=C(O)c1ccn(C(=O)N2CCN(Cc3ccc(C(F)(F)F)cc3N3CCOCC3)CC2)n1 [Example 3, 1-(4-(2-Morpholino-4-(trifluoromethyl)benzyl)piperazine-1-carbonyl)-1H-pyrazole-3-carboxylic Acid]
< 0.1 µM | Cc1cc(-c2ccccc2)ccc1CN1CCN(C(=O)n2ccc(C(=O)O)n2)CC1 [Example 16, 1-(4-((3-Methyl-[1,1′-biphenyl]-4-yl)methyl)piperazine-1-carbonyl)-1H-pyrazole-3-carboxylic acid]
< 0.1 µM | O=C(O)c1ccn(C(=O)N2CCN(Cc3cc(Cl)cc(Oc4ccc(Cl)cc4)c3)CC2)n1 [Example 19, 1-(4-(3-Chloro-5-(4-chlorophenoxy)benzyl)piperazine-1-carbonyl)-1H-pyrazole-3-carboxylic Acid]
< 0.1 µM | NC(=O)c1ccn(C(=O)N2CCC3(CCCN3Cc3cc4ccc(C(F)(F)F)cc4s3)CC2)n1 [Example 22, 1-(1-((6-(Trifluoromethyl)benzo[b]thiophen-2-yl)methyl)-1,8-diazaspiro[4.5]decane-8-carbonyl)-1H-pyrazole-3-carboxamide]
< 0.1 µM | O=C(O)c1nn(C(=O)N2CCC3(CCN(Cc4cccc(Cl)c4C(F)(F)F)C3)CC2)cc1Cl [Example 26, 4-Chloro-1-(2-(3-chloro-2-(trifluoromethyl)benzyl)-2,8-diazaspiro[4.5]decane-8-carbonyl)-1H-pyrazole-3-carboxylic Acid]
< 0.1 µM | O=C(O)c1ccn(C(=O)N2CCC(OCc3cc(Cl)cc(Oc4ccc(Cl)cc4)c3)CC2)n1 [Example 27, 1-(4-((3-Chloro-5-(4-chlorophenoxy)benzyl)oxy)piperidine-1-carbonyl)-1H-pyrazole-3-carboxylic Acid]
< 0.1 µM | O=C(O)c1ccn(C(=O)N2CCC3(CCCN3Cc3cc(-n4cccn4)cc(C(F)(F)F)c3)CC2)n1 [Example 32, 1-(1-(3-(1H-pyrazol-1-yl)-5-(Trifluoromethyl)benzyl)-1,8-diazaspiro[4.5]decane-8-carbonyl)-1H-pyrazole-3-carboxylic Acid]
< 0.1 µM | O=C(O)c1ccn(C(=O)N2C[C@H]3C[C@H](OCc4cccc(C5CCCC5)c4)C[C@H]3C2)n1 [Example 34, 1-(trans-5-((3-Cyclopentylbenzyl)oxy)octahydrocyclopenta[c]pyrrole-2-carbonyl)-1H-pyrazole-3-carboxylic Acid]
< 0.1 µM | NC(=O)c1ccn(C(=O)N2CC3CN(Cc4ccc(C5(C(=O)O)CCOCC5)cc4C(F)(F)F)CC3C2)n1 (stereo not shown) [Example 35, 4-(4-((5-(3-carbamoyl-1H-pyrazole-1-carbonyl)hexahydropyrrolo[3,4-c]pyrrol-2(1H)-yl)methyl)-3-(trifluoromethyl)phenyl)tetrahydro-2H-pyran-4-carboxylic acid]
< 0.1 µM | CC(C)(O)CN(Cc1cccc(C(F)(F)F)c1)C1CCN(C(=O)n2ccc(C(N)=O)n2)CC1 [Example 36, 1-(4-((2-Hydroxy-2-methylpropyl)(3-(trifluoromethyl)benzyl)amino)piperidine-1-carbonyl)-1H-pyrazole-3-carboxamide]
< 0.1 µM | CC(C)(O)COc1cccc(CN2CCN(C(=O)n3ccc(C(N)=O)n3)CC2)c1Cl [Example 37, 1-(4-(2-Chloro-3-(2-hydroxy-2-methylpropoxy)benzyl)piperazine-1-carbonyl)-1H-pyrazole-3-carboxamide]
< 0.1 µM | CC(C)(O)COc1cccc(CO[C@H]2C[C@@H]3CN(C(=O)n4ccc(C(=O)O)n4)C[C@@H]3C2)c1Cl [Example 38, 1-(trans-5-((2-Chloro-3-(2-hydroxy-2-methylpropoxy)benzyl)oxy)octahydrocyclopenta[c]pyrrole-2-carbonyl)-1H-pyrazole-3-carboxylic Acid]
< 0.1 µM | O=C(O)c1ccn(C(=O)N2CCC3(CCN(Cc4cc(Cl)ccc4C(F)(F)F)C3)CC2)n1 [Example 43, 1-(2-(5-chloro-2-(trifluoromethyl)-benzyl)-2,8-diazaspiro[4.5]-decane-8-carbonyl)-1H-pyrazole-3-carboxylic acid]
< 0.1 µM | O=C(O)c1ccn(C(=O)N2CCN(Cc3ccc(Oc4ccc(Cl)cc4)cc3)CC2)n1 [Example 45, 1-(4-(4-(4-chlorophenoxy)-benzyl)piperazine-1-carbonyl)-1H-pyrazole-3-carboxylic acid]
< 0.1 µM | O=C(O)c1ccn(C(=O)N2CCN(Cc3cccc(Oc4ccc(F)cc4)c3)CC2)n1 [Example 51, 1-(4-(3-(4-fluorophenoxy)-benzyl)piperazine-1-carbonyl)-1H-pyrazole-3-carboxylic acid]
< 0.1 µM | O=C(O)c1ccn(C(=O)N2C[C@H]3C[C@H](OCc4cc(F)cc(Cl)c4)C[C@H]3C2)n1 [Example 53, 1-(trans-5-((3-chloro-5-fluorobenzyl)oxy)-octahydrocyclopenta-[c]pyrrole-2-carbonyl)-1H-pyrazole-3-carboxylic acid]
< 0.1 µM | CN(Cc1cc(Cl)ccc1C(F)(F)F)CC1CCN(C(=O)n2cc(Cl)c(C(=O)O)n2)CC1 [Example 54, 4-chloro-1-(4-(((5-chloro-2-(trifluoromethyl)-benzyl)(methyl)-amino)-methyl)piperidine-1-carbonyl)-1H-pyrazole-3-carboxylic acid]

IC50 | Structure (SMILES)
< 0.1 µM | O=C(O)c1ccn(C(=O)N2CCN(Cc3cccc(Oc4cc(C(F)(F)F)ccn4)c3)CC2)n1 [Example 57, 1-(4-(3-((4-(trifluoromethyl)-pyridin-2-yl)oxy)benzyl)-piperazine-1-carbonyl)-1H-pyrazole-3-carboxylic acid]
< 0.1 µM | O=C(O)c1ccn(C(=O)N2CCN(Cc3cccc(Oc4ccc(C(F)(F)F)cn4)c3)CC2)n1 [Example 61, 1-(4-(3-((5-(trifluoromethyl)-pyridin-2-yl)oxy)benzyl)-piperazine-1-carbonyl)-1H-pyrazole-3-carboxylic acid]
< 0.1 µM | O=C(O)c1ccn(C(=O)N2CCC3(CCN(Cc4cc(Cl)cc(C(F)(F)F)c4)C3)CC2)n1 [Example 72, 1-(2-(3-chloro-5-(trifluoromethyl)-benzyl)-2,8-diazaspiro[4.5]-decane-8-carbonyl)-1H-pyrazole-3-carboxylic acid]
< 0.1 µM | O=C(O)c1ccn(C(=O)N2CCC3(CCN(Cc4ccc(C(F)(F)F)cc4Cl)C3)CC2)n1 [Example 77, 1-(2-(2-chloro-4-(trifluoromethyl)-benzyl)-2,8-diazaspiro[4.5]-decane-8-carbonyl)-1H-pyrazole-3-carboxylic acid]
< 0.1 µM | CN(Cc1cc(Cl)ccc1C(F)(F)F)C1CCN(C(=O)n2ccc(C(=O)O)n2)CC1 [Example 81, 1-(4-((5-chloro-2-(trifluoromethyl)-benzyl)-(methyl)amino)-piperidine-1-carbonyl)-1H-pyrazole-3-carboxylic acid]
< 0.1 µM | O=C(O)c1ccn(C(=O)N2CCN(Cc3ccc(C(F)(F)F)cc3N3CCCC3)CC2)n1 [Example 83, 1-(4-(2-(pyrrolidin-1-yl)-4-(trifluoromethyl)-benzyl)-piperazine-1-carbonyl)-1H-pyrazole-3-carboxylic acid]
< 0.1 µM | O=C(O)c1ccn(C(=O)N2CCN(Cc3cccc(Oc4cccc(Cl)c4)c3)CC2)n1 [Example 84, 1-(4-(3-(3-chlorophenoxy)-benzyl)-piperazine-1-carbonyl)-1H-pyrazole-3-carboxylic acid]
< 0.1 µM | O=C(O)c1ccn(C(=O)N2CCN(Cc3cccc(Oc4ccccc4Cl)c3)CC2)n1 [Example 85, 1-(4-(3-(2-chlorophenoxy)-benzyl)piperazine-1-carbonyl)-1H-pyrazole-3-carboxylic acid]
< 0.1 µM | Cc1cc(-c2ccccc2)ccc1CN1CCN(C(=O)n2ccc(C(=O)O)n2)C(C)C1 (stereo not shown) [Example 89, 1-(2-methyl-4-((3-methyl-[1,1′-biphenyl]-4-yl)methyl)-piperazine-1-carbonyl)-1H-pyrazole-3-carboxylic acid]
< 0.1 µM | O=C(O)c1ccn(C(=O)N2CCN(Cc3ccc(C(F)(F)F)cc3N3CC[C@H](F)C3)CC2)n1 [Example 92, (S)-1-(4-(2-(3-fluoropyrrolidin-1-yl)-4-(trifluoromethyl)-benzyl)-piperazine-1-carbonyl)-1H-pyrazole-3-carboxylic acid]
< 0.1 µM | O=C(O)c1ccn(C(=O)N2CCC3(CCCN3Cc3ccc(C(F)(F)F)cc3N3CCCC3)CC2)n1 [Example 93, 1-(1-(2-(pyrrolidin-1-yl)-4-(trifluoromethyl)-benzyl)-1,8-diazaspiro[4.5]-decane-8-carbonyl)-1H-pyrazole-3-carboxylic acid]
< 0.1 µM | O=C(O)c1ccn(C(=O)N2CCN(Cc3cccc(Oc4ccc(Cl)cc4)c3)CC2)n1 [Example 98, 1-(4-(3-(4-chlorophenoxy)-benzyl)-piperazine-1-carbonyl)-1H-pyrazole-3-carboxylic acid]
< 0.1 µM | O=C(O)c1ccn(C(=O)N2CCN(Cc3ccc(C(F)(F)F)cc3N3CCCCC3)CC2)n1 [Example 100, 1-(4-(2-(piperidin-1-yl)-4-(trifluoromethyl)-benzyl)-piperazine-1-carbonyl)-1H-pyrazole-3-carboxylic acid]
< 0.1 µM | CN(Cc1cc(Cl)ccc1C(F)(F)F)C1CCN(C(=O)n2cc(Cl)c(C(=O)O)n2)CC1 [Example 112, 4-chloro-1-(4-((5-chloro-2-(trifluoromethyl)-benzyl)-(methyl)amino)-piperidine-1-carbonyl)-1H-pyrazole-3-carboxylic acid]
< 0.1 µM | O=C(O)c1ccn(C(=O)N2CC3CN(Cc4cc(Cl)cc(C(F)(F)F)c4)CC3C2)n1 (stereo not shown) [Example 124, 1-(5-(3-chloro-5-(trifluoromethyl)-benzyl)-octahydropyrrolo-[3,4-c]pyrrole-2-carbonyl)-1H-pyrazole-3-carboxylic acid]
< 0.1 µM | Cc1cn(C(=O)N2CCN(Cc3cccc(Oc4ccc(Cl)cc4)c3)CC2)nc1C(=O)O [Example 129, 1-(4-(3-(4-chlorophenoxy)-benzyl)-piperazine-1-carbonyl)-4-methyl-1H-pyrazole-3-carboxylic acid]
< 0.1 µM | Cc1cn(C(=O)N2CCC3(CCN(Cc4cc(Cl)ccc4C(F)(F)F)C3)CC2)nc1C(=O)O [Example 130, 1-(2-(5-chloro-2-(trifluoromethyl)-benzyl)-2,8-diazaspiro[4.5]-decane-8-carbonyl)-4-methyl-1H-pyrazole-3-carboxylic acid]
